For the test, the system named is plants. Put plainly: general screening of the herbicidal effect. As to conditions: 10% w/w; compared with Roundup RTU and Bayer Advanced (10% and 100% Label Rate) and untreated control; FIG. 1. The class given is in vivo. On the procedure:
A general screening of the herbicidal effect of the following compounds was carried out: Bayer Advanced® (100% Label Rate), Bayer Advanced® (10% Lable Rate), UTC (=untreated control), Diethyl Oxalacetate (10% w/w), Roundup® RTU (RTU=ready to use) (10% Label Rate) and Roundup® RTU (100% Label Rate).

SMILES strings stand for the structures.

From patent US12514249B2, “Oxaloacetate and related compounds as herbicidal agents” (Verdesian Life Sciences U.S., LLC, priority 2020, dated 2026) come the findings set out here.

Regarding `CCOC(=O)/C=C(\O)C(=O)OCC` [Diethyl Oxalacetate], the herbicidal activity result is “comparable to well-known herbicide products such as Roundup® and Bayer Advanced®”.
